What all share (assay type): biochemical
For one assay, the target named is T1, PDGFRB (Homo sapiens, UniProt P09619).
T1 construct: Kinases are expressed as either kinase domains or full length constructs; made in house
Description: Kinase inhibition assay (33P transfer), PDGFRB. Particulars: read-out: PDGFRB-1.

The target of the next assay is T2, c-Met (Homo sapiens, UniProt P08581).
T2 construct: Kinases are expressed as either kinase domains or full length constructs; made in house
Description: Kinase inhibition assay (33P transfer), c-Met. The note with it: Table 2, kinase inhibition class; read-out: Met-1. Put shortly:
(§1)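 Steps: coat wells with poly(Glu,Tyr) 4:1 or poly(Arg,Ser) 3:1; add purified kinase, [33P]ATP and inhibitor; incubate; wash with 0.5% phosphoric acid; add liquid scintillant; count. IC50 corresponds to half-maximal reduction of bound 33P.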

In the next assay the target is T3, ErbB2 (Homo sapiens, UniProt P04626).
T3 construct: Kinases are expressed as either kinase domains or full length constructs; made in house
Description: Kinase inhibition assay (33P transfer), ErbB2. Particulars: read-out: ErbB2-2. An outline of the steps: as §1

For the next assay, the target named is T4, FGFR1 (Homo sapiens, UniProt P11362).
T4 construct: Kinases are expressed as either kinase domains or full length constructs; made in house
The assay is described as follows: Kinase inhibition assay (33P transfer), FGFR1. The note with it: read-out: FGFR1-1.

The target in the next assay is T5, Kdr (Homo sapiens, UniProt P35968).
T5 construct: Kinases are expressed as either kinase domains or full length constructs; made in house
The assay is described as follows: Kinase inhibition assay (33P transfer), Kdr. The note with it: Table 3; read-out: KDR-1. Put shortly: (§2)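 Enzyme activity is taken as the amount of 33PO4 moved from ATP onto poly(Glu, Tyr) 4:1 or poly(Arg, Ser) 3:1 fixed to the plate surface. Unbound label is removed with 0.5% phosphoric acid before scintillation counting.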

The target in another assay is T6, Itk (Homo sapiens, UniProt Q08881).
T6 construct: Kinases are expressed as either kinase domains or full length constructs; made in house
T6 sequence (Q08881 1-620): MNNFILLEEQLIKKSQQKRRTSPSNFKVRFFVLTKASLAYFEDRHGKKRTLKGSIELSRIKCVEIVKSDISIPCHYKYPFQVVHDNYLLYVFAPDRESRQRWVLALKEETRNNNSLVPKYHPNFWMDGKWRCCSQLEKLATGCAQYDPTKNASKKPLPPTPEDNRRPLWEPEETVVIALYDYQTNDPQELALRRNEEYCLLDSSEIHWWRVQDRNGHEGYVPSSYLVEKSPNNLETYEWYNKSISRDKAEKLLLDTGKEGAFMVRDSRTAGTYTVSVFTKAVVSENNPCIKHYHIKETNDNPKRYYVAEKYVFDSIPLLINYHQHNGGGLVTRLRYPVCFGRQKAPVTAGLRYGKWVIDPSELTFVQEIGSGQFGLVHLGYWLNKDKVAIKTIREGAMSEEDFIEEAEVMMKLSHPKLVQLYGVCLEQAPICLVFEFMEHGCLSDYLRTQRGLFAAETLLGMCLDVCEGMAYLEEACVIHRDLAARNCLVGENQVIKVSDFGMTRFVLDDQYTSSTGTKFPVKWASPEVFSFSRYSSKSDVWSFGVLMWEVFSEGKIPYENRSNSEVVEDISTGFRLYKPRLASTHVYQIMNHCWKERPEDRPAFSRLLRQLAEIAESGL
Description: Kinase inhibition assay (33P transfer), Itk. Particulars: Table 3; read-out: Itk-1. Put shortly:
as §1

Another assay deals with T7, Flt-1 (Homo sapiens, UniProt P17948).
T7 construct: Kinases are expressed as either kinase domains or full length constructs; made in house
The assay is described as follows: Kinase inhibition assay (33P transfer), Flt-1. Put shortly:
as §1

Another assay addresses T8, ErbB4 (Homo sapiens, UniProt Q15303).
T8 construct: Kinases are expressed as either kinase domains or full length constructs; made in house
The assay is described as follows: Kinase inhibition assay (33P transfer), ErbB4. The note with it: read-out: ErbB4-1.

Another assay has as its target T9, IGFR-1 (Homo sapiens, UniProt P08069).
T9 construct: Kinases are expressed as either kinase domains or full length constructs; made in house
The assay is described as follows: Kinase inhibition assay (33P transfer), IGFR-1. The note with it: Table 2, kinase inhibition class.

The target of another assay is T10, Fyn (Homo sapiens, UniProt P06241).
T10 construct: Kinases are expressed as either kinase domains or full length constructs; made in house
Description: Kinase inhibition assay (33P transfer), Fyn. Particulars: read-out: Fyn-1. An outline of the steps: as §1

The next assay concerns the target T11, AKT (Homo sapiens, UniProt Q9Y243).
T11 construct: Kinases are expressed as either kinase domains or full length constructs; made in house
The assay is described as follows: Kinase inhibition assay (33P transfer), AKT. Particulars: Table 2, kinase inhibition class; read-out: AKT3-1. An outline of the steps:
as §2

pIC50: −log10 of the molar value.

T2 sequence (P08581 25-1390): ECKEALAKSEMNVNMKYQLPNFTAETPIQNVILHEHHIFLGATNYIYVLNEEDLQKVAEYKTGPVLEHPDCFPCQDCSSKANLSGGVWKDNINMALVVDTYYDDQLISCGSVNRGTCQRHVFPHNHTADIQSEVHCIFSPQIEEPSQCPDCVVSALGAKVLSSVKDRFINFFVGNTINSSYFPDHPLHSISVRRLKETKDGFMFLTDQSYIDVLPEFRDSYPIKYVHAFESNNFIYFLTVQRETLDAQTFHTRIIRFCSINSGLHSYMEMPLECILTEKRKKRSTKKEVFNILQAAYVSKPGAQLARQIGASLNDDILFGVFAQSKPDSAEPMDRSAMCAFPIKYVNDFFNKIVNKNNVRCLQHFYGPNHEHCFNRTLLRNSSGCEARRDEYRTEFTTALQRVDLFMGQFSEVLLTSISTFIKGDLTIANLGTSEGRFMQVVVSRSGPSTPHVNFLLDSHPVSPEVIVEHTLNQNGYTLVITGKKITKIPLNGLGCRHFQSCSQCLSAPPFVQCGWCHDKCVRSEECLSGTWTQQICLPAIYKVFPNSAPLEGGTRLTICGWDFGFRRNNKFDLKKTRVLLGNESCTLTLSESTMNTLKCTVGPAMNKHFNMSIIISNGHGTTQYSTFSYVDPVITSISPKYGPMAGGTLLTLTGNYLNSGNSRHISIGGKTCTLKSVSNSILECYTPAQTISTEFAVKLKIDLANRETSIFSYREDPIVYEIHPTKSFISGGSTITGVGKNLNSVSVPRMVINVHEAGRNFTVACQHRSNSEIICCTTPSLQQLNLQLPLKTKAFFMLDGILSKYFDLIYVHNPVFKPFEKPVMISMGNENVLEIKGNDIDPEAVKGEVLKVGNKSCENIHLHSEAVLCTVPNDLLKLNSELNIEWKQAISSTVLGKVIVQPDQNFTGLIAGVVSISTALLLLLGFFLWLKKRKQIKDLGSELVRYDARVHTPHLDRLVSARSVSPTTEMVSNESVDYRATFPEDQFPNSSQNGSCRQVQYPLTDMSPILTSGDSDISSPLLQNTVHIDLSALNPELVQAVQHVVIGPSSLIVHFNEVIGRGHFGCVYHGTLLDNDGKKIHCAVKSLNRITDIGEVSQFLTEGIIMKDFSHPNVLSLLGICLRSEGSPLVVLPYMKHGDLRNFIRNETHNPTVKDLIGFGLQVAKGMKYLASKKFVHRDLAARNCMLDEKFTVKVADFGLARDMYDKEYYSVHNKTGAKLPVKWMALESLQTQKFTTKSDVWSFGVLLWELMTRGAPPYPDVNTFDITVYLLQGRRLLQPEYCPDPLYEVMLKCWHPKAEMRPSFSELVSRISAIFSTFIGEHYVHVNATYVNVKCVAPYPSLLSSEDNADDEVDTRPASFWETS
T1 sequence (P09619 33-1106, species assumed): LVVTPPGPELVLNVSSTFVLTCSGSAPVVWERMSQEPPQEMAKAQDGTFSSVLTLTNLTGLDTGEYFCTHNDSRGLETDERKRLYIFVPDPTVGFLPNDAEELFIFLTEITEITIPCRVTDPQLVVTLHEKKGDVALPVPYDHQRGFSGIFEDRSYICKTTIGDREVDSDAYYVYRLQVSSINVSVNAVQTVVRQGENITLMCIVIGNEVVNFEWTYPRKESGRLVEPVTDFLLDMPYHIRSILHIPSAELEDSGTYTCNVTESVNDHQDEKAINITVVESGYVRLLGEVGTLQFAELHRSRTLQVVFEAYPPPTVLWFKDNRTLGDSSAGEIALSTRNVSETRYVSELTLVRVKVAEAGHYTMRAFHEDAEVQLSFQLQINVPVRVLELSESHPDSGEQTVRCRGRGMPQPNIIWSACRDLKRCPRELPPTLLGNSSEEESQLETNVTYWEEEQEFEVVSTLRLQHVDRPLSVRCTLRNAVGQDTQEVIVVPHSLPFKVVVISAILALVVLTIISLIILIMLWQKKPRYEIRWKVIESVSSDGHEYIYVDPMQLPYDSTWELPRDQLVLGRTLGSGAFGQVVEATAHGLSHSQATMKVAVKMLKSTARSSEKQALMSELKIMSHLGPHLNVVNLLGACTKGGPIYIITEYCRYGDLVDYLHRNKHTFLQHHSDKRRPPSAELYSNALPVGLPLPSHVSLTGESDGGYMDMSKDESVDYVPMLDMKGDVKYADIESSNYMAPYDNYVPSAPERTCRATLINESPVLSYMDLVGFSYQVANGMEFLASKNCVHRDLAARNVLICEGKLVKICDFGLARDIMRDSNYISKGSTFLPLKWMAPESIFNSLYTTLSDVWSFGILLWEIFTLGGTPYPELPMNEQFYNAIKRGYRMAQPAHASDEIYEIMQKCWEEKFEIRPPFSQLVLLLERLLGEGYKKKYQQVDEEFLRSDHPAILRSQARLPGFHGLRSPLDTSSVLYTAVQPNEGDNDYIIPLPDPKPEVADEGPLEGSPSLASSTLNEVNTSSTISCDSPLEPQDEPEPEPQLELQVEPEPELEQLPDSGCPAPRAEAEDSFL
T7 sequence (P17948 27-1338, species assumed): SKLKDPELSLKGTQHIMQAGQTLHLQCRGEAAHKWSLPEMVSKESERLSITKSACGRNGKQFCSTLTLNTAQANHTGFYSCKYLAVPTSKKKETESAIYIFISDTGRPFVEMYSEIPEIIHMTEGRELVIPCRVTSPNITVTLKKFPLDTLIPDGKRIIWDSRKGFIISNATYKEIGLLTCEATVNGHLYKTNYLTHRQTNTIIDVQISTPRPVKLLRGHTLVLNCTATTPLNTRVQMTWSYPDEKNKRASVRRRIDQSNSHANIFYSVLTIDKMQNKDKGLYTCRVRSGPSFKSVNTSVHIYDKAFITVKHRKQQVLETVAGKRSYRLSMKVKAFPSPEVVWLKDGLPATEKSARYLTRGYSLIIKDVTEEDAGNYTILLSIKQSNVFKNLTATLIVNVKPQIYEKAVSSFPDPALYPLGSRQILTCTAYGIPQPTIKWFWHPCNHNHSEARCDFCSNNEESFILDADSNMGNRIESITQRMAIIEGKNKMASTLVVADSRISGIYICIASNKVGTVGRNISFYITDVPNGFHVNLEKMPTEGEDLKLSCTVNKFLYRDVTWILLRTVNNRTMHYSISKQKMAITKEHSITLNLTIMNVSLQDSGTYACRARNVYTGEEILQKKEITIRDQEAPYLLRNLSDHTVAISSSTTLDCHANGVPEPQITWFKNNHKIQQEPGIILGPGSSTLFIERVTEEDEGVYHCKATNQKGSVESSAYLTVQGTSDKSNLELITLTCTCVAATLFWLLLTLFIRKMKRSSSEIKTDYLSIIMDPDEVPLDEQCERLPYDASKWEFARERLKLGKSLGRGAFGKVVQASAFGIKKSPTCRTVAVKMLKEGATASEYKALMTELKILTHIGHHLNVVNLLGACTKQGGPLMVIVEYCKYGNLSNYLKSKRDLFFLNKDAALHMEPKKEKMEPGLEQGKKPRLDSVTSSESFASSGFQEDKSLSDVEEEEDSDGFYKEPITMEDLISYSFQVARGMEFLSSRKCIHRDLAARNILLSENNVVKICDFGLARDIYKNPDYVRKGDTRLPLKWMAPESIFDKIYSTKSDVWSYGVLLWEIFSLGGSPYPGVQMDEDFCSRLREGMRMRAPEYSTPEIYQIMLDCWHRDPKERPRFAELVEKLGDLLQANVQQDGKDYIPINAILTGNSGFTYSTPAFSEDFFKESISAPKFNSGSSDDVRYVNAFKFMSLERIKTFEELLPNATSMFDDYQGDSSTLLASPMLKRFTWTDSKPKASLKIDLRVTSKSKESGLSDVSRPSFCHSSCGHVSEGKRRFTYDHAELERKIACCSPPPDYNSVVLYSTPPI
T9 sequence (P08069 31-1367): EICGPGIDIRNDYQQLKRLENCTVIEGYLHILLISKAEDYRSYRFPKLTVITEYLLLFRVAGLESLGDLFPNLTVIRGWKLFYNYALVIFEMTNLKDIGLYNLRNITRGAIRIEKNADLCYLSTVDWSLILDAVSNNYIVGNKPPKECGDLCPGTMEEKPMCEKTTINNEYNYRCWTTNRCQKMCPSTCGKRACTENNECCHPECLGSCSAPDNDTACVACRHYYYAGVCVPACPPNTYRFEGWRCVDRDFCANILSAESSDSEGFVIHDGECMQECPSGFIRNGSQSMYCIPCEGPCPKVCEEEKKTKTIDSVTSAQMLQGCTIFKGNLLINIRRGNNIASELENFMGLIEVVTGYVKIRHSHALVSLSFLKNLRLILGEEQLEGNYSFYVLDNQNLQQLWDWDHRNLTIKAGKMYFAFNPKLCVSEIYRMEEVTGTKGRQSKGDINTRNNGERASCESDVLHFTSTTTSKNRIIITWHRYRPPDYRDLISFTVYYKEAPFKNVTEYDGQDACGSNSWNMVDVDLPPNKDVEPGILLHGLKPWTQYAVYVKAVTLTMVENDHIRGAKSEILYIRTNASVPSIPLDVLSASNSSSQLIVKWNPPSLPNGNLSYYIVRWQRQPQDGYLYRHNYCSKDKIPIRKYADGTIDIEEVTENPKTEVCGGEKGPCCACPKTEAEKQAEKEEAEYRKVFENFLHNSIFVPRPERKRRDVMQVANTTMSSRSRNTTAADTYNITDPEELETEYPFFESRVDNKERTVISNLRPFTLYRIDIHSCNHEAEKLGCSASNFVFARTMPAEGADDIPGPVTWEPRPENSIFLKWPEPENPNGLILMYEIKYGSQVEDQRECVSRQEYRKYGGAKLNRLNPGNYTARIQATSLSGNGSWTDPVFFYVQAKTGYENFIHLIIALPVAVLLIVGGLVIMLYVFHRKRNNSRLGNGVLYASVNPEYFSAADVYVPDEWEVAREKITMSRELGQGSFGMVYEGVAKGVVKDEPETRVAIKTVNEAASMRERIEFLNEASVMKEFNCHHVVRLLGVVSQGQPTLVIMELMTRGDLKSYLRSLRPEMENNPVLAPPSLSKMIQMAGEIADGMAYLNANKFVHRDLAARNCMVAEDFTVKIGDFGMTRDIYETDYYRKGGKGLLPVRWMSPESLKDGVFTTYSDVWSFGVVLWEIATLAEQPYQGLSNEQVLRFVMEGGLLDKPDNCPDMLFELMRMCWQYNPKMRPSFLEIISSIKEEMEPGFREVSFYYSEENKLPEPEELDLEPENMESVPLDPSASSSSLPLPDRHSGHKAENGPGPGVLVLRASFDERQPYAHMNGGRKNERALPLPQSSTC

Consider `COc1cc(Nc2ncnc(Nc3ccc4c(ccn4Cc4ccccc4)c3)n2)cc(OC)c1OC` [Compound 178], for which the pIC50 at PDGFRB was 5.14 to 5.30; at c-Met, 5.14 to 5.30; on ErbB2 it was > 6.08; on FGFR1, 5.03 to 5.14; at Kdr, 5.30 to 6.08; at Itk it was < 5.03. Besides, the pIC50 is 5.03 to 5.14 against Flt-1; < 5.03 at ErbB4; 5.30 to 6.08 against IGFR-1; 5.30 to 6.08 on Fyn; 5.03 to 5.14 at AKT.
Turning to `COCCOc1ccc(Nc2ncnc(Nc3ccc4[nH]ccc4c3)n2)cc1OCCOC` [Compound 321], the pIC50 on PDGFRB is 5.27 to 6.05; on c-Met, < 5.00; on ErbB2, 5.27 to 6.05; on FGFR1, < 5.00; on Kdr, > 6.05; at Itk, < 5.00. Besides, the pIC50 is < 5.00 against Flt-1; < 5.00 on ErbB4; 5.11 to 5.27 against IGFR-1; < 5.00 on Fyn; < 5.00 on AKT.
`COc1cc(Nc2ncnc(-n3ccc4ccccc43)n2)cc(OC)c1OC` [Compound 185]: the pIC50 at PDGFRB is > 5.97; on c-Met, 4.92 to 5.03; at ErbB2, < 4.92; at FGFR1 it was < 4.92; at Kdr, > 5.97; on Itk, < 4.92. The pIC50 against Flt-1 was 5.20 to 5.97; at ErbB4 it was < 4.92; at IGFR-1 it was 5.20 to 5.97; on Fyn it was < 4.92; on AKT it was < 4.92.
With `COc1cc(Nc2ncnc(Nc3cccc(Cl)c3)n2)cc(OC)c1OC` [Compound 135], the pIC50 is > 5.99 at PDGFRB; 5.21 to 5.99 on c-Met; > 5.99 at ErbB2; 5.21 to 5.99 on FGFR1; > 5.99 at Kdr; 5.04 to 5.21 at Itk. For the same molecule, the pIC50 is < 4.94 at Flt-1; 5.04 to 5.21 on ErbB4; > 5.99 on IGFR-1; > 5.99 on Fyn; < 4.94 on AKT.
For the molecule `COc1cc(Nc2ncnc(Nc3ccc(OCc4ccccc4)cc3)n2)cc(OC)c1` [Compound 156], the pIC50 at PDGFRB was 4.98 to 5.09; at c-Met, 4.98 to 5.09; on ErbB2 it was 5.25 to 6.03; at FGFR1, 5.25 to 6.03; on Kdr, 5.09 to 5.25; at Itk, < 4.98. Further, the pIC50 at Flt-1 was 5.09 to 5.25; at ErbB4, 5.09 to 5.25; against IGFR-1 it was < 4.98; at Fyn it was 5.09 to 5.25; at AKT, < 4.98.
For the molecule `COc1cc(Nc2ncnc(Nc3cccc(F)c3)n2)cc(OC)c1OC` [Compound 304], the pIC50 on PDGFRB was > 5.97; at c-Met, 5.19 to 5.97; at ErbB2, 5.19 to 5.97; on FGFR1, 5.19 to 5.97; at Kdr, > 5.97; at Itk, 4.92 to 5.03. In addition, the pIC50 is 5.19 to 5.97 at Flt-1; > 5.97 at ErbB4; > 5.97 at IGFR-1; > 5.97 at Fyn; < 4.92 on AKT.
With `COc1ccc(Nc2ncnc(-n3c(N)nc4ccccc43)n2)cc1OC` [Compound 285], the pIC50 on PDGFRB is < 4.91; on c-Met it was < 4.91; on ErbB2, < 4.91; on FGFR1 it was 4.91 to 5.02; on Kdr it was > 5.96; on Itk, < 4.91. Also, the pIC50 was < 4.91 at Flt-1; < 4.91 on ErbB4; > 5.96 against IGFR-1; < 4.91 on Fyn; < 4.91 on AKT.

For the origin of these results see patent publication US7074789B2, “Kinase inhibitors” (Amgen Inc., priority 1999, dated 2006).
